Laboratory results from US20140135310A1, “SULPHONAMIDE DERIVATIVES OF ALICYCLIC AMINES FOR THE TREATMENT OF CENTRAL NERVOUS SYSTEM DISEASES” (Adamed Sp. z o.o., priority 2011, published 2014).
Like-named read-outs stand apart in the source and are kept apart here.

Columns and labels:
Assay type in all cases: cell-based
[1] = target: T1, 5-HT1A serotoninergic receptors (Homo sapiens, UniProt P08908); experiment: Cellular functional assay, 5-HT1A serotoninergic receptors; settings: for 5-HT1A ag [%]: agonist mode, percent of control specific agonist response; for 5-HT1A antag [%]: antagonist mode
T1 sequence (P08908 1-422): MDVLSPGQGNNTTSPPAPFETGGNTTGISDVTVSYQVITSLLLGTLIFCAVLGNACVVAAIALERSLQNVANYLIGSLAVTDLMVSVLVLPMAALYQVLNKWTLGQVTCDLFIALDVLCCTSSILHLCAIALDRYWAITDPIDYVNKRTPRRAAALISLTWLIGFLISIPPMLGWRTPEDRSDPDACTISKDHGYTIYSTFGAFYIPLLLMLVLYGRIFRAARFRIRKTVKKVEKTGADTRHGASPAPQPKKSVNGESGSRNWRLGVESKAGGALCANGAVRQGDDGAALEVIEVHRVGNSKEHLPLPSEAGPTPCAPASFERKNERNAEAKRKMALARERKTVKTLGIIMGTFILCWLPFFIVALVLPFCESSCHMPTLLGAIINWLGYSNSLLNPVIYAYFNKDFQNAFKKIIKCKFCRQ
Protocol: (§1) The results are expressed as a percent of control specific agonist response ((measured specific response/control specific agonist response)×100) obtained in the presence of the test compounds.
(§2) The EC50 values (concentration producing a half-maximal specific response) and IC50 values (concentration causing a half-maximal inhibition of the control specific agonist response) were determined by non-linear regression analysis of the concentration-response curves generated with mean replicate values using Hill equation curve fitting (Y=D+[(A−D)/(1+(C/C50)nH)], where Y=specific response, D=minimum specific response, A=maximum specific response, C=compound concentration, and C50=EC50 or IC50, and nH=slope factor). This analysis was performed using a software developed at Cerep (Hill software) and validated by comparison with data generated by the commercial software SigmaPlot® 4.0 for Windows® (© 1997 by SPSS Inc.).
(§3) For the antagonists, the apparent dissociation constants (Kb) were calculated using the modified Cheng Prusoff equation (Kb=IC50/(1+(A/EC50A)), where A=concentration of reference agonist in the assay, and EC50A=EC50 value of the reference agonist).

[2] = target: D2 dopaminergic receptors (Homo sapiens, UniProt P14416); experiment: Cellular functional assay, D2 dopaminergic receptors; settings: D2S (h), HEK-293 cells; for D2 ag [%]: agonism, percent of control specific agonist response (3 μM dopamine for control); for D2 antag [%]: antagonism, stimulus dopamine (30 nM)
Protocol: as §1, §2, §3

[3] = target: D3 dopaminergic receptors (Homo sapiens, UniProt P35462); experiment: Cellular functional assay, D3 dopaminergic receptors; settings: D3 (h), CHO cells; for D3 ag [%]: agonism, percent of control specific agonist response (0.3 μM dopamine for control); for D3 antag [%]: antagonism, stimulus dopamine (10 nM)
Protocol: as §1, §2, §3

[4] = target: 5-HT7 serotoninergic receptors (Homo sapiens, UniProt P34969); experiment: Cellular functional assay, 5-HT7 serotoninergic receptors; settings: for 5-HT7 ag [%]: agonist mode, percent of control specific agonist response; for 5-HT7 antag [%]: antagonist mode
Protocol: as §1, §2, §3

[5] = target: 5-HT2A serotoninergic receptors (Homo sapiens, UniProt P28223); experiment: Cellular functional assay, 5-HT2A serotoninergic receptors
Protocol: as §1
as §2, with “factor).” for “factor). This analysis was performed using a software developed at Cerep (Hill software) and validated by comparison with data generated by the commercial software SigmaPlot® 4.0 for Windows® (© 1997 by SPSS Inc.).”
as §3

[6] = target: 5-HT6 serotoninergic receptors (Homo sapiens, UniProt P50406); experiment: Cellular functional assay, 5-HT6 serotoninergic receptors; settings: agonist mode; percent of control specific agonist response
Protocol: as §1, §2, §3

[7] = target: T2, D4 dopaminergic receptors (Homo sapiens, UniProt P21917); experiment: Cellular functional assay, D4 dopaminergic receptors; settings: D4.4 (h), CHO cells; for D4 ag [%]: agonism, percent of control specific agonist response (300 nM dopamine for control); for D4 antag [%]: antagonism, stimulus dopamine (100 nM)
T2 sequence (P21917 1-419): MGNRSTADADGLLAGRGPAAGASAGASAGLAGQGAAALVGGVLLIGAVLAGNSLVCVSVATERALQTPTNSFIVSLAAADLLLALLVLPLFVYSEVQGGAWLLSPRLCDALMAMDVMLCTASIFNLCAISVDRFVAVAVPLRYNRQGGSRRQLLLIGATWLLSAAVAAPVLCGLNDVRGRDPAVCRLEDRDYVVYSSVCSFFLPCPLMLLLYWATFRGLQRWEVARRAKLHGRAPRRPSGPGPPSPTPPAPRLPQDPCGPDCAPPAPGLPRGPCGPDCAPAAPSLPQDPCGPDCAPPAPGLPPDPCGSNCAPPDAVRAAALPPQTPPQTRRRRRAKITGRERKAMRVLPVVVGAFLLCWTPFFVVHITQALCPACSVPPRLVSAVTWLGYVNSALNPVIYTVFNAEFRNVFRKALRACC
Protocol: as §1, §2, §3

[8] = agonist mode, percent of control specific agonist response

D2 dopaminergic receptors, sequence (P14416 whole entry): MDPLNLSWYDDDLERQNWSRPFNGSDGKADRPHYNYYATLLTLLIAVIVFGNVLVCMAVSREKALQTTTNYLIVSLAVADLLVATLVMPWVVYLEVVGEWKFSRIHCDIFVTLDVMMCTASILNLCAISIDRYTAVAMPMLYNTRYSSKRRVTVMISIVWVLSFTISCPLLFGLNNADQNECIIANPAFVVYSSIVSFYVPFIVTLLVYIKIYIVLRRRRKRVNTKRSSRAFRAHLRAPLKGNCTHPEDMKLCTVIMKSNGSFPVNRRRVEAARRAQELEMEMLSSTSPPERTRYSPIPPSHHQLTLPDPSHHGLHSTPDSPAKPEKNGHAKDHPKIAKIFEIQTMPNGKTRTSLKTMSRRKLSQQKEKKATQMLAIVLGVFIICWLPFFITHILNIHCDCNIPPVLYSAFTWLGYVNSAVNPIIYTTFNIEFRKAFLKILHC
5-HT2A serotoninergic receptors, sequence (P28223 whole entry): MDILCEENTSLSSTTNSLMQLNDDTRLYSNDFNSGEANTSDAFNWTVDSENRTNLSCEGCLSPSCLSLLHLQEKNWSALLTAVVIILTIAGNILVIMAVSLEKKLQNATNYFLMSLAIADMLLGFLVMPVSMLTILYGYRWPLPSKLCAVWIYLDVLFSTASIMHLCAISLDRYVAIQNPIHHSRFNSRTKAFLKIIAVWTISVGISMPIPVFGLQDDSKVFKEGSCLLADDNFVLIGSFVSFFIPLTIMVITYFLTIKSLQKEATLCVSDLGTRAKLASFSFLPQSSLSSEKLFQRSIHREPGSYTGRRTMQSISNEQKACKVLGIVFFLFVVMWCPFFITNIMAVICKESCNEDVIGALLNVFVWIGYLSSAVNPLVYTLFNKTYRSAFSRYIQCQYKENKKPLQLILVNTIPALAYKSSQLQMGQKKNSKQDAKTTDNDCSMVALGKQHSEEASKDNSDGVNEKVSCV
5-HT6 serotoninergic receptors, sequence (P50406 whole entry): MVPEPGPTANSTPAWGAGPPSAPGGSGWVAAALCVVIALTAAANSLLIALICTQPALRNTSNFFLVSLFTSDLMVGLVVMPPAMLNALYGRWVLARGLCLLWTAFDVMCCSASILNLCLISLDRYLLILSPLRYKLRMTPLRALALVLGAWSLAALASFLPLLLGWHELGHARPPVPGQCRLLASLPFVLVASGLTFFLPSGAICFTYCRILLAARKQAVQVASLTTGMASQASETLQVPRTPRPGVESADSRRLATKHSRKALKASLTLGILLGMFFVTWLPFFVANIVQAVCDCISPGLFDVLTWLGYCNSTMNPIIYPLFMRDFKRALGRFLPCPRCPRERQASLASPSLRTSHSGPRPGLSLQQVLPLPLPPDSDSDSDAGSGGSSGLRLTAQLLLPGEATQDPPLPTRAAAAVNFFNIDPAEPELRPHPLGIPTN
5-HT7 serotoninergic receptors, sequence (P34969 whole entry): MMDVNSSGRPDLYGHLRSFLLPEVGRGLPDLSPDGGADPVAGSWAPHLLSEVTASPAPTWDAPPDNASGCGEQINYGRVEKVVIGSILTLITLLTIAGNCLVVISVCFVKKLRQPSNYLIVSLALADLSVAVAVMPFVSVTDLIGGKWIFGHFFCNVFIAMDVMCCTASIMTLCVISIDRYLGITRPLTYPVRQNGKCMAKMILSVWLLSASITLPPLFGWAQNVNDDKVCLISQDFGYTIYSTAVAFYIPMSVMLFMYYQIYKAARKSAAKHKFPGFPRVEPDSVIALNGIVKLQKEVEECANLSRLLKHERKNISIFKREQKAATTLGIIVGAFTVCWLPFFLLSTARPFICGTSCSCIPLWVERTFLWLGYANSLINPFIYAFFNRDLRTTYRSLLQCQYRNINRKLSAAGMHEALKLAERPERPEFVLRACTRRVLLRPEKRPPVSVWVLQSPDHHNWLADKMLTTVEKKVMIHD
D3 dopaminergic receptors, sequence (P35462 whole entry): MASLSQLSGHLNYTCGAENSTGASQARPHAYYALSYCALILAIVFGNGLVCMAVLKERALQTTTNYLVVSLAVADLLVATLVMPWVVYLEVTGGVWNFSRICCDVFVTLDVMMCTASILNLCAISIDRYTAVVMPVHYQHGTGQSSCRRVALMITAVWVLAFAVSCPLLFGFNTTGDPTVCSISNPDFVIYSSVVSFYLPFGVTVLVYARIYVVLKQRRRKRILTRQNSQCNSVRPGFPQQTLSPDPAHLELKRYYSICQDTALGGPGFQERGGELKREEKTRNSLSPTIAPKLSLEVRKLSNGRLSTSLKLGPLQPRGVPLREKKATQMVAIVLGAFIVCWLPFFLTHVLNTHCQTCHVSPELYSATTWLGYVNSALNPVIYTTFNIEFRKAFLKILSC

Compound	5-HT1A ag [%] [1]	D2 ag [%] [2]	D2 antag [%] [2]	D3 ag [%] [3]	D3 antag [%] [3]	5-HT7 ag [%] [4]	5-HT1A antag [%] [1]	5-HT2A ag [%] [5, 8]	5-HT2A antag [%] ([5]; antagonist mode)	5-HT7 antag [%] [4]	5-HT2A ag [%] [5]	5-HT6 ag [%] [6]	D4 ag [%] [7]	D4 antag [%] [7]	5-HT2A antag [%] [5]
O=S(=O)(NC1CN(CCOc2cccc3[nH]ccc23)C1)c1cccc2ccccc12 [Compound 49, N-[1-[2-(1H-Indol-4-yloxy)ethyl]azetidin-3-yl]naphthalene-1-sulphonamide]	39%	57%	97%	75%	12%	26%	–	–	–	–	–	–	–	–	–
N-[[1-[2-[(2,2-Dimethyl-3H-benzofuran-7-yl)oxy]ethyl]azetidin-3-yl]methyl]-3-hydroxy-benzenesulphonamide [Compound 111]	48%	36%	89%	–	–	24%	89%	5%	58%	55%	–	–	–	–	–
Cc1cccc(S(=O)(=O)NC2CN(CCOc3cccc4c3OCCO4)C2)c1 [Compound 93, N-[1-[2-(2,3-Dihydro-1,4-benzodioxan-8-yloxy)ethyl]azetidin-3-yl]-3-methyl-benzenesulphonamide]	37%	–	–	–	–	13%	76%	–	–	76%	–	–	–	–	–
O=S(=O)(NC1CCN(CCCc2c[nH]c3ccc(F)cc23)C1)c1ccc2ccccc2c1 (stereo not drawn) [Compound 80, N-[1-[3-(5-Fluoro-1H-indol-3-yl)propyl]pyrrolidin-3-yl]naphthalene-2-sulphonamide]	42%	33%	78%	91%	−5%	3%	–	–	–	–	34%	9%	6%	80%	–
Cc1cccc(S(=O)(=O)NC2CCN(CCCc3c[nH]c4ccc(F)cc34)C2)c1 (stereo not drawn) [Compound 78, N-[1-[3-(5-Fluoro-1H-indol-3-yl)propyl]pyrrolidin-3-yl]-3-methyl-benzenesulphonamide]	54%	–	–	89%	−10%	–	–	–	–	–	51%	54%	–	–	−1%
O=S(=O)(NC1CCN(CCOc2nsc3ccccc23)C1)c1ccc2ccccc2c1 (stereo not drawn) [Compound 39, N-[1-[2-(1,2-Benzothiazol-3-yloxy)ethyl]pyrrolidin-3-yl]naphthalene-2-sulphonamide]	34%	–	–	66%	16%	1%	–	–	–	–	3%	−1%	–	–	–
O=S(=O)(NC1CN(CCOc2cccc3c2OCCO3)C1)c1ccc(Cl)cc1 [Compound 92, 4-Chloro-N-[1-[2-(2,3-dihydro-1,4-benzodioxan-8-yloxy)ethyl]azetidin-3-yl]benzene-sulphonamide]	47%	–	–	–	–	18%	89%	–	–	69%	–	–	–	–	–
O=S(=O)(NC1CN(CCOc2cccc3[nH]ccc23)C1)c1ccc2ccccc2c1 [Compound 50, N-[1-[2-(1H-Indol-4-yloxy)ethyl]azetidin-3-yl]naphthalene-2-sulphonamide]	48%	56%	92%	85%	0%	21%	–	–	–	–	−2%	–	62%	32%	–
O=S(=O)(NC1CCN(CCOc2cccc3[nH]ccc23)CC1)c1ccccc1 [Compound 55, N-[1-[2-(1H-Indol-4-yloxy)ethyl]-4-piperidine]benzenesulphonamide]	72%	–	–	82%	−33%	5%	18%	−1%	–	48%	–	–	–	–	–
